Measured values: ChEMBL document CHEMBL1201862, “PubChem BioAssay data set” (2004)
Calls of active or inactive are those of the source.

What was measured:
[1] = biological target: T1, Endoribonuclease toxin MazF (Escherichia coli K-12, UniProt P0AE70); test: fluorescent RNA oligo signal without MazF, dose response, counter-screen for MazEF activator project, biochemical, fluorescence, single-stranded RNase substrate (AID 588502); type: functional
T1 sequence (P0AE70 whole entry): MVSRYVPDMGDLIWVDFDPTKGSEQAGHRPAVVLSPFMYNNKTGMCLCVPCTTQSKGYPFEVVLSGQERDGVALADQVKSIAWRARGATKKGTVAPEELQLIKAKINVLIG

[2] = biological target: T1, Endoribonuclease toxin MazF; test: MazF toxin RNase activators, dose response, biochemical, fluorescence, single-stranded RNA substrate, uHTS hits (AID 588481); type: functional
H9c2 = test: cells; type: functional, cell-based; conditions: Rattus norvegicus, H9c2, Myocardium;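 note: confirmatory concentration-response retest of ultra-high-throughput screening hits for modulation of myocardial damage; cell death induced by hydrogen peroxide oxidative stress; compound pretreatment for 60 min then peroxide exposure for 2 h; potency is for protecting the cells against peroxide damage rather than for killing them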
Cytochrome P450 3A4 = Cytochrome P450 3A4 (Homo sapiens, UniProt P08684); conditions: Potency;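 note: confirmatory qHTS run detecting inhibitors and substrates of CYP3A4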
Chain of Cytochrome P450 3A4 (P08684 whole entry): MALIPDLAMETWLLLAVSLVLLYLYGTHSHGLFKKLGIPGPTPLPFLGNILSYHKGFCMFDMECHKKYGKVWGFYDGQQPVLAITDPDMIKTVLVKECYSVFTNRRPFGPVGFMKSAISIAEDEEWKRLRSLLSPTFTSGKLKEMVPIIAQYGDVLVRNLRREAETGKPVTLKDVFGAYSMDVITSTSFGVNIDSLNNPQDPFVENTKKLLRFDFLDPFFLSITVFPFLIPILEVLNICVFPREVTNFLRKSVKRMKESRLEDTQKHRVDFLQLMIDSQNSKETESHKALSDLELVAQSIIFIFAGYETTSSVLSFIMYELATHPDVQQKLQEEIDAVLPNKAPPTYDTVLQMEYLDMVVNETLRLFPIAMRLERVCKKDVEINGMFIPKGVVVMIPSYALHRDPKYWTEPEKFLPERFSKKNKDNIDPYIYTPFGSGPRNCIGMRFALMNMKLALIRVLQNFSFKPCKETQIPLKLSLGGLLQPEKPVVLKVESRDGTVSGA

[3] = biological target: Heat shock protein HSP 90-alpha (Homo sapiens, UniProt P07900); type: functional, organism-based
Large T antigen = Large T antigen (Simian virus 40, UniProt P03070); type: functional, Betapolyomavirus macacae;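 note: Confirmatory-stage PubChem screen for compounds that inhibit SV40 T antigen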
Chain of Large T antigen (P03070 whole entry): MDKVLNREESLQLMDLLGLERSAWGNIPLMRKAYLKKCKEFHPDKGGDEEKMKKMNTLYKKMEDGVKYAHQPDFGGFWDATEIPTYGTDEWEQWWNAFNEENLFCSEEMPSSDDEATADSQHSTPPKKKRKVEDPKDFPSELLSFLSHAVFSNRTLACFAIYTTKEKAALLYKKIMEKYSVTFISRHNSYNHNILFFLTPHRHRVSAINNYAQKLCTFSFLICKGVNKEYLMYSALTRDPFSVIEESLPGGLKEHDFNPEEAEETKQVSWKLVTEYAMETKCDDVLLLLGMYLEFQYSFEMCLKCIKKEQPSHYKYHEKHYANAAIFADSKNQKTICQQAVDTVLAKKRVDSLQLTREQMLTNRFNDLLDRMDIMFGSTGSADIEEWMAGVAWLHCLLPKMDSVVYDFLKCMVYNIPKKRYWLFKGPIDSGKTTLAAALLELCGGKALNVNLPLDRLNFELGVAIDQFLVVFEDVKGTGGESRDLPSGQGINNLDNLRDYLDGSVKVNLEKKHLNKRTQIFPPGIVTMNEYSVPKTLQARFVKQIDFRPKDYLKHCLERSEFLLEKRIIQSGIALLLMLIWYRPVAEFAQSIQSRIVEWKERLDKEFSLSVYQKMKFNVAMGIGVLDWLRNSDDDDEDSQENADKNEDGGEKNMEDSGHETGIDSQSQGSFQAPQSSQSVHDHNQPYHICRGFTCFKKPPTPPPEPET

BJ [4] = test: cytotoxicity toward BJ-TERT fibroblasts, dose response, cell-based, RAS-independent, luminescence (AID 1933); type: functional; conditions: Homo sapiens
BJ [5] = test: cytotoxicity toward BJ-TERT-LT-ST fibroblasts, dose response, cell-based, RAS-independent, luminescence (AID 1935); type: functional; conditions: Homo sapiens;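 note: BJ fibroblasts immortalized with TERT plus LT and ST oncogenes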
[6] = cytotoxicity toward DRD oncogenic fibroblasts, dose response, cell-based, non-viral oncogenic, luminescence (AID 1934); type: functional; conditions: Homo sapiens
[7] = C. albicans growth with fluconazole, confirmation, fluorescence, retest (AID 2467); type: functional, cell-based
BJ [8] = test: cells; type: functional, cell-based; conditions: Homo sapiens
[9] = NIH-3T3 fibroblast cytotoxicity, dose response, cytotoxicity control, cell-based, fluorescence, Alamar Blue, secondary assay (AID 2327); type: functional;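 note: NIH-3T3 mouse fibroblasts cultured with fluconazole at 8 µg/mL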
INS1 = test: beta cell apoptosis inhibitors, cytokine rescue, dose response, luminescence, retest (AID 449756); type: functional, cell-based; conditions: Rattus norvegicus;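 note: cell death triggered by IL-1 beta plus TNF-alpha plus IFN-gamma mixture; protective hits raise ATP signal compared with cytokine alone wells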
[10] = microbe, parasite or virus in culture; type: functional; conditions: Mycobacterium tuberculosis
Fatty acid synthase [11] = biological target: T2, Fatty acid synthase (Homo sapiens, UniProt P49327); test: FAS thioesterase domain inhibitors, dose response, biochemical, kinetic fluorescence intensity (AID 624326); type: functional;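 note: rate of fluorescence rise from hydrolysis of a fluorogenic O-methyl fluorescein ester substrate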
T2 sequence (P49327 whole entry, the tested form may be a part): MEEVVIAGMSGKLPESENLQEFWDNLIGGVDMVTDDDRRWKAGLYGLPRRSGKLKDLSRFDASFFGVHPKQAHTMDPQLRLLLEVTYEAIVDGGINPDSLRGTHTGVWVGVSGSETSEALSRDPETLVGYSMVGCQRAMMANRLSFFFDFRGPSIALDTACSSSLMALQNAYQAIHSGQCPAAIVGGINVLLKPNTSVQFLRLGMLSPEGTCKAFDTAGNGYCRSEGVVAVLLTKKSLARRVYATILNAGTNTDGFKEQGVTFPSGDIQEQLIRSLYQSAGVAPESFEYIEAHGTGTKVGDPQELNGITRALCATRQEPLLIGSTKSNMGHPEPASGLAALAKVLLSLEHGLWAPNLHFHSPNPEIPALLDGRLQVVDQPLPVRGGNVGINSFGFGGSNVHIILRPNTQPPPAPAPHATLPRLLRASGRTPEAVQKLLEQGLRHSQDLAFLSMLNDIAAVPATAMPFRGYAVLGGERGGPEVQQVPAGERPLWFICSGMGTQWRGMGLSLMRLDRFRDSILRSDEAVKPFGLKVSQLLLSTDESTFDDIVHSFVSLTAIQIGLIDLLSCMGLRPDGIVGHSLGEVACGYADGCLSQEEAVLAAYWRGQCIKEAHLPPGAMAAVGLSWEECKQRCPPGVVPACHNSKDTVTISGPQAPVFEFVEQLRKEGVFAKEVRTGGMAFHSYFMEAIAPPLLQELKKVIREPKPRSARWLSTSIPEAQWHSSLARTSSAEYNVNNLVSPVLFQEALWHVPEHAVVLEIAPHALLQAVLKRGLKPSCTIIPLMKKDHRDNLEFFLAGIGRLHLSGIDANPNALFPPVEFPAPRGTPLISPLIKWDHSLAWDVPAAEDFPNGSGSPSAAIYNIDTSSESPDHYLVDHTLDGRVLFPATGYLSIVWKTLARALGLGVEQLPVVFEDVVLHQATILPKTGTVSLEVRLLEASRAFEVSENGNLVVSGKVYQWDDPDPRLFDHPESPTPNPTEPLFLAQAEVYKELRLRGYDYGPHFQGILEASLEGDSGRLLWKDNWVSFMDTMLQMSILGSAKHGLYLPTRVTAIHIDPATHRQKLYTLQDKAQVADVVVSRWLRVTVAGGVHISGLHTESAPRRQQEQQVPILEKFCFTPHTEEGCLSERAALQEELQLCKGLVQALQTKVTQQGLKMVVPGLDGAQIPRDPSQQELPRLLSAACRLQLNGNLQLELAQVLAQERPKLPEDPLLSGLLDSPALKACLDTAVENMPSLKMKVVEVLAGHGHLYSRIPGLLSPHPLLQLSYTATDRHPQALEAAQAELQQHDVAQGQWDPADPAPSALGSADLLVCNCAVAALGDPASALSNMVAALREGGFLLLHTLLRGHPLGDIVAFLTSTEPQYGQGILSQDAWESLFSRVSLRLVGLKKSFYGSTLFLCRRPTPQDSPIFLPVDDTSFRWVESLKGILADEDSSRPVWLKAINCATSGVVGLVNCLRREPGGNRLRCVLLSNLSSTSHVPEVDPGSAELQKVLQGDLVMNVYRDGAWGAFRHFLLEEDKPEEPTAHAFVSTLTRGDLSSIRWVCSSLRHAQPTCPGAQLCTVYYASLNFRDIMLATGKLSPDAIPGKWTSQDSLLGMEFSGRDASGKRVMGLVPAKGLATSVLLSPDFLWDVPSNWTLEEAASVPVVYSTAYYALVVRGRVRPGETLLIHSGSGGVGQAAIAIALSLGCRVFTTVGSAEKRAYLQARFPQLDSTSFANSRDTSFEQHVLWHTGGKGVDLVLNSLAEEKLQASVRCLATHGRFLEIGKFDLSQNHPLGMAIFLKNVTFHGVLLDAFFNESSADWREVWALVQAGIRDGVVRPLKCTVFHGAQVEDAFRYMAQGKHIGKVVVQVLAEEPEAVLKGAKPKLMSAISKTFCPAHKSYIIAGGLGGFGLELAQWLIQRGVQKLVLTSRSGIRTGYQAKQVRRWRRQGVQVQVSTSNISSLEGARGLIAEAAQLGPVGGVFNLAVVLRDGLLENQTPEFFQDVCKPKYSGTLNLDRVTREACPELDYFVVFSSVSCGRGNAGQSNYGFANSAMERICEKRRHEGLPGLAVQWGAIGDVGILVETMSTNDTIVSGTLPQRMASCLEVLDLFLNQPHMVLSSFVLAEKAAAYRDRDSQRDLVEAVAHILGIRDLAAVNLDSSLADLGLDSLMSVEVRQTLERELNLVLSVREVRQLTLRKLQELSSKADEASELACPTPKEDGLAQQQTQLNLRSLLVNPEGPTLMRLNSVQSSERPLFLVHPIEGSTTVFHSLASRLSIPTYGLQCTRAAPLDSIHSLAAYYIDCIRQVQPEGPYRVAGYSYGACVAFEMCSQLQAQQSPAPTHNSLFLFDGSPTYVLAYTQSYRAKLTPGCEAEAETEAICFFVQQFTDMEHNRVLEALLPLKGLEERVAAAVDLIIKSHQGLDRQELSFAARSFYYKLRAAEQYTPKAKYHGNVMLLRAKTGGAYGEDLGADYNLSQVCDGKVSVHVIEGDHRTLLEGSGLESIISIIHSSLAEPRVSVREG

[12] = biological target: T3, Corticotropin-releasing factor receptor 2/Corticotropin-releasing factor-binding protein (Homo sapiens, UniProt P24387+Q13324); test: Dose Response confirmation of uHTS hits for small molecule antagonists of the CRF-binding protein and CRF-R2 receptor complex.; type: functional; conditions: read-out: IC50_Mean
T3 sequence (Q13324 whole entry): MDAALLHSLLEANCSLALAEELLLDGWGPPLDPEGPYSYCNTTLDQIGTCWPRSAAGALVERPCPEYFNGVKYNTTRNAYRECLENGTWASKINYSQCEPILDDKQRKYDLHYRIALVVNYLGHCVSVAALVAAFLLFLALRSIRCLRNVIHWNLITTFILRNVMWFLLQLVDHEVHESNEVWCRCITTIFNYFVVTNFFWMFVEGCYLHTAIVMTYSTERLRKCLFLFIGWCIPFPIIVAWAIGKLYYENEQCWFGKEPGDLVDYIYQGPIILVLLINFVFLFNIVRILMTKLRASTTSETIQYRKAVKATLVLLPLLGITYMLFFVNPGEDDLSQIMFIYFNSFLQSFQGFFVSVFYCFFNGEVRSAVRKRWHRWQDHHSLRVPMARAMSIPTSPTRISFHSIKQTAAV
T3 sequence (P24387 whole entry): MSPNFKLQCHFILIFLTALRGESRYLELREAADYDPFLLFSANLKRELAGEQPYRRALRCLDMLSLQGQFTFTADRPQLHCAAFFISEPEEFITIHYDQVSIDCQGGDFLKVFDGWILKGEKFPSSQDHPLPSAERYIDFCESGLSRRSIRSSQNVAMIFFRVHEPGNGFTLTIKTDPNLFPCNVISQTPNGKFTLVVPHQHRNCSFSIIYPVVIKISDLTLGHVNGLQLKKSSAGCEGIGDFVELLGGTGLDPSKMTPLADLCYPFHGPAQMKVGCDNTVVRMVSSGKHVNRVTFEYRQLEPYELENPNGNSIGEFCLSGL

Fatty acid synthase [13] = biological target: T2, Fatty acid synthase; test: FAS thioesterase domain inhibitors, dose response, biochemical, endpoint fluorescence intensity, uHTS hits (AID 624327); type: functional;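 note: fluorescence from hydrolysis of an O-methyl fluorescein acyl ester substrate by the enzyme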
[14] = biological target: T3, Corticotropin-releasing factor receptor 2/Corticotropin-releasing factor-binding protein; test: activators of CRF receptor 2 with binding protein – uHTS hits, confirmation (AID 602473); type: functional; conditions: read-out: EC50_Mean
[15] = biological target: T4, Rac GTPase-activating protein 1 (Homo sapiens, UniProt Q9H0H5); test: MgcRacGAP GTPase-activating activity inhibitors, confirmation, biochemical, ADP Hunter fluorescence, primary and confirmatory (AID 624330); type: functional
T4 sequence (Q9H0H5 whole entry): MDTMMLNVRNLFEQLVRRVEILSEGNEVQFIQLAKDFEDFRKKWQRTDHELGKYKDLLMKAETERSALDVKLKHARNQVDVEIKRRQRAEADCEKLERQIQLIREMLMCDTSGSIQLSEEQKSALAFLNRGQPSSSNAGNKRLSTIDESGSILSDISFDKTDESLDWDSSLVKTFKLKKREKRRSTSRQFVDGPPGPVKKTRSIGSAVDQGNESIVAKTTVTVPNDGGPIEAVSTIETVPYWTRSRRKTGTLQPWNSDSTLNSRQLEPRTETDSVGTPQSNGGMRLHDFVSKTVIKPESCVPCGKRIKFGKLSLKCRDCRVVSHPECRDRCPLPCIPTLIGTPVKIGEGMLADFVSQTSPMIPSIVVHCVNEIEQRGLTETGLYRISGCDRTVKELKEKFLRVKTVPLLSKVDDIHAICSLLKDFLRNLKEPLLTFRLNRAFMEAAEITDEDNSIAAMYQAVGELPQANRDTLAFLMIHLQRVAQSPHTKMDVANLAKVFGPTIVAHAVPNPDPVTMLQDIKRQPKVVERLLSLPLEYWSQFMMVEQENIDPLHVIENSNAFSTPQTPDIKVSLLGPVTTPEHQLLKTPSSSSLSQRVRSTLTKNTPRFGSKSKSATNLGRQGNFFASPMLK

[16] = tested on: Streptococcus sp. 'group A'; test: growth inhibition of control SK(-) GAS strain, dose response, counter-screen for streptokinase expression inhibitor project, luminescence, kanamycin, BacTiterGlo, confirmation (AID 1900); type: functional, organism-based
Streptokinase A = biological target: T5, Streptokinase A (Streptococcus pyogenes serotype M1, UniProt P10520); test: S. pyogenes streptokinase expression inhibitors, potency, dose response, plasminogen activation absorbance, OD405 (AID 1914); type: functional, Streptococcus pyogenes M1 GAS;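 note: secreted streptokinase activity via plasminogen activation per viability signal from cell pellet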
T5 sequence (P10520 whole entry): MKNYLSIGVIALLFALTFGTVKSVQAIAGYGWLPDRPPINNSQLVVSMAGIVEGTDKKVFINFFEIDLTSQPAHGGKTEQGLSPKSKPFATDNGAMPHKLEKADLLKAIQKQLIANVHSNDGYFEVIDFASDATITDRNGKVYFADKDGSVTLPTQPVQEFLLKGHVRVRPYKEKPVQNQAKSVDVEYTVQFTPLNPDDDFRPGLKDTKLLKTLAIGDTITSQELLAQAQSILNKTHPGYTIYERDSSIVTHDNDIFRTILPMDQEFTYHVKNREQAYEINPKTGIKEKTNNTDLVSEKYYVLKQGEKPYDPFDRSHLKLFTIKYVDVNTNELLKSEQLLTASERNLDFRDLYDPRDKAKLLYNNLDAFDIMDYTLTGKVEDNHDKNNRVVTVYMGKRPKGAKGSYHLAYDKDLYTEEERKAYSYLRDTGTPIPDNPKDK

Streptococcus = test: Group A Streptococcus viability loss, dose response, counter-screen for streptokinase expression inhibitor project, luminescence, BacTiterGlo (AID 1915); type: functional, organism-based;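 note: potency for reduction of bacterial viability or growth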
[17] = inhibitors of SNCA 5'UTR-driven reporter translation, confirmation, H4 neuroglioma cells, luminescence (AID 1988); type: functional, cell-based
[18] = Luminescence Cell-Based Dose Response HTS to Identify Inhibitors of 5'UTR Stem-Loop Driven Prion Protein mRNA Translation in H4 Neuroglioblastoma Cells. [Related pubchem assays: 1827 (Project Summary), 1813 (Primary HTS)]; type: functional
[19] = inhibitors of firefly luciferase expression or activity, dose response, H4 neuroglioma cells, luminescence (AID 1990); type: functional, cell-based

CCc1ccc(C2=NN(S(C)(=O)=O)C(c3cccs3)C2)cc1 (configuration not stated)
EC50 [1]: > 99 µM (inactive) | EC50 [2]: > 99 µM (inactive)

Cc1nc(OCc2ccccc2)c2ccccc2n1
IC50 (H9c2): > 79 µM (inactive)

CC(=O)Oc1cc2c(c(C)c1OC(C)=O)CC=C1[C@]3(C)CC[C@]4(C)CC[C@@](C)(C(=O)O)CC4[C@]3(C)CC[C@]12C (some centres not stated)
AC50 (Cytochrome P450 3A4): 31.6 µM (inconclusive)

N#CSCC(=O)c1cccc2ccccc12
AC50 [3]: 1.61 µM (active) | IC50 (Large T antigen): 20.6 µM (active)

COc1ccc(C2/C=C\CN(S(=O)(=O)c3cccc4cccnc34)CC(=O)N2Cc2ccc(F)cc2)cc1 (configuration not stated)
IC50 (H9c2): > 79 µM (inactive)

Oc1nc(CN2CCCC2)nc2sc3c(c12)CCC3
IC50 (H9c2): > 79 µM (inactive)

Clc1nccc2c1ccc1ccccc12
AC50 (Cytochrome P450 3A4): 12.6 µM (inconclusive)

COc1ccc(NC(=O)C(OC(=O)c2ccc([N+](=O)[O-])o2)c2ccccc2)cc1Cl (configuration not stated)
IC50 (H9c2): > 79 µM (inactive)

CCN(CC)C(=O)c1ccc2c3c(cccc13)C(=O)N(CCc1ccc(OC)c(OC)c1)C2=O
IC50 (H9c2): > 79 µM (inactive)

CCn1cc(/C=C/c2cc[n+](C)cc2)c2ccccc21
EC50 (BJ [4]): 23.8 µM (active) | EC50 (BJ [5]): > 150 µM (not active) | EC50 [6]: > 150 µM (not active) | EC50 [7]: 0.946 µM (active) | EC50 (BJ [8]): > 150 µM (not active) | EC50 [9]: > 150 µM (inconclusive) | AC50 (INS1): 4.58 µM (active)

CCOC(=O)c1ccc(CC(=O)c2oc3cc(O)ccc3c2C)o1
EC50 [1]: 81.2 µM (inactive) | EC50 [2]: > 99 µM (inactive)

COc1ccc(OCC(=O)Nc2c(C(=O)N(CCN(C)C)Cc3ccco3)oc3ccccc23)cc1
CC50 [10]: > 40 µM (active) | EC50 [7]: > 38 µM (not active) | EC50 [9]: > 160 µM (inactive)

CCCn1c(-c2ccc(F)cc2)nc2c(NC(C)CN(C)C)nc(C)nc21 (configuration not stated)
AC50 (Cytochrome P450 3A4): 20 µM (inconclusive)

CCCCCCCC#Cc1ccccc1/C=N/[S+]([O-])C(C)(C)C (configuration not stated)
AC50 (Cytochrome P450 3A4): 3.16 µM (inconclusive)

NC(=O)c1c(NC(=O)Cn2nc(C(=O)O)c3ccccc3c2=O)sc2c1CCC2
IC50 (H9c2): > 79 µM (inactive)

O=C(NCCCc1ccccc1)c1cccc([N+](=O)[O-])c1
IC50 (Fatty acid synthase [11]): 4.33 µM (active) | IC50 [12]: > 47.1 µM (inactive) | IC50 (Fatty acid synthase [13]): 5.56 µM (active) | EC50 [14]: > 53 µM (inactive)

CCOC(=O)c1[nH]c2ccc(C)cc2c1N
IC50 [15]: 24.1 µM (active) | EC50 [7]: > 38 µM (not active) | EC50 [9]: > 160 µM (inconclusive)

COc1cc(NC(=O)c2ccccc2)c(OC)cc1NC(=O)Cc1ccc(Br)cc1
EC50 [1]: > 99 µM (inactive) | EC50 [2]: 29.6 µM (inactive)

O=C(C1CC1)N1CCN(c2ccc(O)cc2)CC1
IC50 (Large T antigen): 11.5 µM (active)

Cc1cc(C)n(-c2nc3nonc3nc2Nc2cccc(C)c2C)n1
EC50 [1]: > 99 µM (inactive) | EC50 [2]: > 99 µM (inactive)

COc1ccc(Cl)cc1NC(=O)CN(C)C(=O)Cn1[nH]c(=O)c2ccccc2c1=O
IC50 (H9c2): 20.7 µM (active)

COc1ccc(OC)c(C(=O)COC(=O)c2ccc([N+](=O)[O-])o2)c1
IC50 (H9c2): > 79 µM (inactive)

CCOC(=O)c1cc2c(=O)n3ccccc3nc2n(Cc2ccco2)/c1=N/C(=O)c1cccnc1
IC50 (H9c2): 24.3 µM (active)

CCc1cc(C(=O)N/N=C/c2ccc(O)cc2)c2ccccc2n1
IC50 (Large T antigen): > 100 µM (active)

CCN1C[C@@]2(COC)C3[C@@H](OC)C4[C@@H]1[C@@]3(C1C[C@@]3(O)[C@H](OC(=O)c5ccccc5)C1[C@]4(OC(C)=O)[C@@H](O)[C@@H]3OC)[C@@H](OC)C[C@H]2O (some centres not stated)
AC50 (Cytochrome P450 3A4): 31.6 µM (inconclusive)

CCOc1cc(/C=N/Nc2nc(C)cc(O)n2)ccc1O
IC50 (Large T antigen): 24.9 µM (active)

Cc1ccc(/C=N/NC(=O)C2=NNC(c3ccccc3)(c3ccccc3)C2)c(O)c1
EC50 [16]: 2.9 µM (active) | EC50 [7]: 2.3 µM (active) | EC50 (Streptokinase A): > 150 µM (not active) | EC50 [9]: 8.56 µM (active) | EC50 (Streptococcus): > 150 µM (not active)

COc1ccc(-c2nn(-c3ccccc3)cc2/C=N/NC(=S)NC(C)C)cc1OC
EC50 [17]: 48.4 µM (active) | EC50 [7]: > 38 µM (not active) | EC50 [18]: > 120 µM (not active) | EC50 [9]: 22.9 µM (active) | EC50 [19]: 20.2 µM (active)

Oc1ccc(Nc2nc(NCC3CCCO3)c3ccccc3n2)cc1 (configuration not stated)
IC50 (Large T antigen): 9.48 µM (active)

COc1cc(O)c(C(=O)/C=C/c2ccccc2)c(OC)c1 [FLAVOKAWAIN B]
AC50 (Cytochrome P450 3A4): 15.8 µM (inconclusive)

COc1cc(O)cc(/C=C/c2ccccc2)c1 [PINOSYLVIN METHYL ETHER]
AC50 (Cytochrome P450 3A4): 31.6 µM (inconclusive)
